Tests used:
[1] = system: FAAH substrates (AEA, OEA, and PEA); assay: Brain and GI tissue fatty acid amide levels in cortagine-induced visceral hypersensitive rats (LC-MS/MS); format: in vivo, rat
Method: Rats were treated with the FAAH inhibitor URB597 [3′-(aminocarbonyl) biphenyl-3-yl cyclohexylcarbamate](3 mg/kg, SC route) or vehicle (DMSO/cremophor/isotonic saline (1:1:8 v:v:v), PO route) in the cortagine-induced visceral hypersensitivity model as described in Example 3. Briefly Male Sprague-Dawley rats were habituated to Bollman cages for 3 days. The following day, rats were anesthetized with isoflurane and a 5 cm balloon pressure sensor was inserted into the distal colon 1 cm from the anus. After 20 min, a first colorectal distension (CRD) baseline was performed (10, 20, 40, 60 mmHg, 20 s duration, 4 min inter-stimulus) and the visceromotor response (VMR) assessed. After the first CRD, rats were treated with URB597 (3 mg/kg in vehicle, SC route) or vehicle (DMSO/cremophor/isotonic saline (1:1:8 v:v:v), PO route). Two hours later, rats were treated with cortagine (10 μg/kg in vehicle, IP route). After 15 min, a second CRD was performed.
Thirty min after the second CRD, rats were anesthetized with isoflurane, decapitated, and brains were collected rapidly, placed on sheets of aluminum foil sitting on dry ice to flash freeze. A 5 cm-long segment of jejunum and a 5 cm-long segment of ascending colon were collected, split open, dipped in ice-cold physiological saline to rinse away intestinal contents, placed on aluminum foil on top of dry ice to flash freeze. Then, brains, jejunum and ascending colon were placed in separate labeled Falcon tubes, respectively, and stored at −80° C.
On each experimental day, one naive untreated rat (n=6 total) (not treated with test compounds, not treated with cortagine and not subjected to CRD assay), kept in normal housing and handling conditions was also euthanized and its brain, jejunum and ascending colon collected as described above. The other rats were euthanized by CO2 inhalation followed by thoracotomy.
Levels of the endocannabinoids N-arachidonoyl-ethanolamide (AEA, anandamide), N-oleoyl-ethanolamide (OEA) and N-palmitoyl-ethanolamide (PEA) in the brain, jejunum and ascending colon were measured by LC-MS/MS.
The fatty acid amides were extracted from the samples and standards by modifications of the method described in Richardson et al, Analytical Biochemistry, 2007, 360: 216-226, as described below.
Intestine samples were removed from the −80° C. freezer and placed on dry ice. Each intestine sample was weighed in a clean, tared 50 mL polypropylene BD Falcon tube and placed on wet ice after recording the weight. Using a glass pipette, 7 mL of (room temp.) 9:1 ethyl acetate:hexane were added to each intestine. Then, 2.5 μL of 5 μg/mL of IS (12.5 ng, prepared as indicated below) was added to each intestine sample. One conical container was removed at a time from the wet ice and homogenized until the tissue was uniformly minced. Using a homogenizer probe, the contents were homogenized for 30 seconds; 3 mL of water were added to each intestine sample, then homogenized for an additional 15 seconds. The homogenizer probe was rinsed with water between samples and with water and 70% EtOH between dose groups. The homogenates were vortexed for ˜5 sec then centrifuged at […], 3500 rpm for 20 minutes. The ethyl acetate layer (top layer) was recovered and placed in 15 mL glass tubes. The solvent was evaporated under nitrogen (TurboVap, 55° C.) until dry and the tissue extracts were reconstituted in 0.25 mL of 1:3 CHCl3:MeOH. Then the glass tubes were placed in a 37° C. shaking water bath for 5 min and vortexed again to re-suspend them. The samples were transferred to Eppendorf tubes and centrifuged (at room temp) at 13,000 rpm for 3 min. Then, 75 μL of each sample and standard was transferred to a 96 deep well plate on wet ice, and the remaining supernatant was stored at −80° C. The samples and standards were diluted to 1:1 using a multi-channel pipette by adding 75 μL of 100 ng/mL d-4-AEA in ice-cold methanol and pipetting up and down to mix. […]

Female Wistar rats = assay: Basal sensitivity to colorectal distension model; format: in vivo, rat; conditions: 3 mg/kg or 10 mg/kg subcutaneously; CRD measured 3 hrs 15 minutes later
[2] = URB597 3 mg/kg SC, first trial, Student's t test

NC(=O)c1cccc(-c2cccc(OC(=O)NC3CCCCC3)c2)c1 [URB597, 3′-(aminocarbonyl) biphenyl-3-yl cyclohexyl carbamate, reference compound]
levels of AEA, OEA and PEA in the brain, ascending colon and jejunum ([1]; URB597 3 mg/kg SC single administration, cortagine-induced visceral hypersensitive rats, first trial, 3 mg/kg): elevated levels of the three FAAH substrates
levels of AEA and PEA in the jejunum [1, 2]: statistically different from those in the naïve rats
levels of AEA, OEA, and PEA in the ascending colon versus vehicle treated and naïve rats [1, 2]: statistically different from those in the vehicle treated and naïve rats
levels of AEA, OEA, and PEA in the brain versus vehicle treated and naïve rats [1, 2]: statistically different from those in the vehicle treated and naïve rats
levels of OEA in the jejunum [1, 2]: statistically different from those in the vehicle treated and naïve rats
levels of AEA, OEA and PEA in the brain, ascending colon and jejunum ([1]; second trial, URB597 3 mg/kg SC + cortagine 10 ug/kg IP): elevated levels of the three FAAH substrates
basal sensitivity to colorectal distension (number of abdominal contractions) (Female Wistar rats): does not alter basal sensitivity

Reference: patent US20130224151A1, “Use of FAAH Inhibitors for Treating Abdominal, Visceral and Pelvic Pain” (UNITED STATES OF AMERICA, priority 2010, published 2013)
